This note sets out measurements from patent US5837687A, “Azapeptide derivative” (Fujirebio Inc., priority 1994, dated 1998).

In this experiment the target is T1, NKA receptor (Mesocricetus auratus, UniProt P51144).
T1 construct: from tissue; host or cells: hamster respiratory tract (trachea) ring specimens
T1 sequence (P51144 1-384): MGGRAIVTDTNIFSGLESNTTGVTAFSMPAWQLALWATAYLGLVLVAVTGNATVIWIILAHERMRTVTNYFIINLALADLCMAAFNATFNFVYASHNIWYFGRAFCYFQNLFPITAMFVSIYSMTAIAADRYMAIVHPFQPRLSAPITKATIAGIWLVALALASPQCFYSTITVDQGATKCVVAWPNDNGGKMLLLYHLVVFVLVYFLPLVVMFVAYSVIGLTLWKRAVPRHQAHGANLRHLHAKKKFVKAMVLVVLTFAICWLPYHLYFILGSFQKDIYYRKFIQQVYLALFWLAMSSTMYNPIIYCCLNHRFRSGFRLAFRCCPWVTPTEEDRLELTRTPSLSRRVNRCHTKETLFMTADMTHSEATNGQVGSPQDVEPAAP
Description: Activity to constriction of hamster respiratory tracts caused by NKA (isolated tissue, tension). Type of experiment: cell-based. The protocol:
The activity of the azapeptide derivative of the present invention to a NKA receptor was evaluated by the following method.
(1) Activity to constriction of hamster respiratory tracts caused by NKA
Respiratory tracts were taken out from male Syrian strain Golden hamsters having a body weight of 100 to 180 g, and cyclic specimens having a width of 3 to 6 mm were prepared. The specimens were incubated at 37° C. and suspended by loading a static tension of 0.5 g, in a reaction tank charged with 15 ml of a Tyrode solution (137 mM of NaCl, 2.7 mM of KCl, 1.8 mM of CaCl2, 1.02 mM of MgCl2, 11.9 mM of NaHCO3, 0.42 mM of NaH2 PO4 and 5.5 mM of glucose) in which 95% O2 -5% CO2 had been passed.
The compound to be tested was charged into the reaction tank and maintained for 5 minutes. 1×10^-7 M of NKA was charged into the reaction tank, and tension caused thereby was recorded. The examined effect of the tested compound as an antagonist was shown by IC50.
As a reminder, the IC50 is the midpoint of a concentration-inhibition curve. Molecule `CC(C)(C)OC(=O)N[C@@H](CCCNC(=N)N[N+](=O)[O-])C(=O)N[C@@H](Cc1c[nH]c2ccccc12)C(=O)NN(Cc1ccccc1)C(=O)NCCOCc1ccccc1` [Example 15, Boc-Arg(NO2)-Trp-AzPhe-NH(CH2)2 OCH2 Ph] yielded an IC50 of 35 nM.
Next, `CC(C)(C)OC(=O)N[C@@H](CC(=O)O)C(=O)N[C@@H](Cc1c[nH]c2ccccc12)C(=O)NN(Cc1ccccc1)C(=O)NCCOCc1ccccc1` [Example 16 (2), Boc-Asp-Trp-AzPhe-NH(CH2)2 OCH2 Ph]: 13 nM; `CC(C)(C)OC(=O)N[C@@H](CC(=O)OCc1ccccc1)C(=O)N[C@@H](CCC(N)=O)C(=O)N[C@@H](Cc1c[nH]c2ccccc12)C(=O)NN(Cc1ccccc1)C(=O)NCCOCc1ccccc1` [Example 2 (3), Boc-Asp(OBzl)-Gln-Trp-AzPhe-NH(CH2)2 OCH2 Ph]: 1.9 nM; `Cc1ccc(C)c(CN(NC(=O)[C@H](Cc2c[nH]c3ccccc23)NC(=O)[C@H](CCC(N)=O)NC(=O)NC(C)(C)C)C(=O)NCCOCc2ccccc2)c1` [Example 38 (3), t-Bu-NHCO-Gln-Trp-AzPhe(2,5-diMe)-NH(CH2)2 OCH2 Ph]: 0.68 nM.
Next, `CC(C)(C)NC(=O)N[C@@H](CCC(N)=O)C(=O)N[C@@H](Cc1c[nH]c2ccccc12)C(=O)NN(Cc1ccccc1F)C(=O)NCCOCc1ccccc1` [Example 39 (3), t-Bu-NHCO-Gln-Trp-AzPhe(2-F)-NH(CH2)2 OCH2 Ph]: 0.61 nM.
Next, `CC(C)(C)OC(=O)N[C@@H](CC(=O)OCc1ccccc1)C(=O)N[C@@H](Cc1c[nH]c2ccccc12)C(=O)NN(Cc1ccccc1)C(=O)NCCOCc1ccccc1` [Example 16 (1), Boc-Asp(OBzl)-Trp-AzPhe-NH(CH2)2 OCH2 Ph]: 13 nM; `CC(C)(C)NC(=O)N[C@@H](CCC(N)=O)C(=O)N[C@@H](Cc1c[nH]c2ccccc12)C(=O)NN(Cc1ccccc1)C(=O)NCCOCc1ccc2ccccc2c1` [Example 41 (3), t-Bu-NHCO-Gln-Trp-AzPhe-NH(CH2)2 O-(2-naphthylmethyl)]: 20 nM.
The molecule `Cc1ccccc1CN(NC(=O)[C@H](Cc1c[nH]c2ccccc12)NC(=O)[C@H](CCC(N)=O)NC(=O)NC(C)(C)C)C(=O)NCCOCc1ccccc1` [Example 33 (3), t-Bu-NHCO-Gln-Trp-AzPhe(2-Me)-NH(CH2)2 OCH2 Ph] showed a 50% inhibitory concentration (IC50) of 0.16 nM.
`CC(C)CNC(=O)N(Cc1ccccc1)NC(=O)[C@H](Cc1c[nH]c2ccccc12)NC(=O)[C@H](CCC(N)=O)NC(=O)[C@H](CC(=O)OCc1ccccc1)NC(=O)OC(C)(C)C` [Example 25 (3), Boc-Asp(OBzl)-Gln-Trp-AzPhe-NHCH2 CH(CH3)2] had a concentration for half-maximal inhibition (IC50) of 34 nM.
Next, `CC(C)CCNC(=O)N[C@@H](CCC(N)=O)C(=O)N[C@@H](Cc1c[nH]c2ccccc12)C(=O)NN(Cc1ccccc1)C(=O)NCCOCc1ccccc1` [Example 7, i-Pent-NHCO-Gln-Trp-AzPhe-NH(CH2)2OCH2 Ph]: 0.5 nM; `CC(C)(C)OC(=O)N[C@@H](CC(=O)OCc1ccccc1)C(=O)N[C@@H](CCC(N)=O)C(=O)N[C@@H](Cc1c[nH]c2ccccc12)C(=O)NN(Cc1ccccc1)C(=O)NCc1ccccc1` [Example 20 (3), Boc-Asp(OBzl)-Gln-Trp-AzPhe-NHCH2 Ph]: 1.7 nM; `CC(C)(C)OC(=O)N[C@@H](CCC(N)=O)C(=O)N[C@@H](Cc1c[nH]c2ccccc12)C(=O)NN(Cc1ccccc1)C(=O)NCc1ccc(F)cc1` [Example 17 (2), Boc-Gln-Trp-AzPhe-NHCH2 Ph(4-F)]: 29 nM.
The molecule `CC(C)CCC(=O)N[C@@H](CC(=O)OCc1ccccc1)C(=O)N[C@@H](CCC(N)=O)C(=O)N[C@@H](Cc1c[nH]c2ccccc12)C(=O)NN(Cc1ccccc1)C(=O)NCc1ccccc1` [Example 21, i-Pent-CO-Asp(OBzl)-Gln-Trp-AzPhe-NHCH2 Ph] displayed a 50% inhibitory concentration (IC50) of 1.7 nM.
In the case of `COc1ccc(CNC(=O)N(Cc2ccccc2)NC(=O)[C@H](Cc2c[nH]c3ccccc23)NC(=O)[C@H](CCC(N)=O)NC(=O)[C@H](CC(=O)OCc2ccccc2)NC(=O)OC(C)(C)C)c(OC)c1` [Example 22, Boc-Asp(OBzl)-Gln-Trp-AzPhe-NHDmob], the IC50 is 4900 nM.
Molecule `CC(C)(C)NC(=O)N[C@@H](CCC(N)=O)C(=O)N[C@@H](Cc1c[nH]c2ccccc12)C(=O)NN(Cc1ccccc1)C(=O)NCCOCc1cccnc1` [Example 42 (3), t-Bu-NHCO-Gln-Trp-AzPhe-NH(CH2)2 O-(3-pyridylmethyl)] gave an IC50 of 16 nM.
On to `CC(C)(C)OC(=O)N[C@@H](CCCNC(N)=O)C(=O)N[C@@H](Cc1c[nH]c2ccccc12)C(=O)NN(Cc1ccccc1)C(=O)NCCOCc1ccccc1` [Example 14, Boc-Cit-Trp-AzPhe-NH(CH2)2 OCH2 Ph], for which the IC50 was found to be 24 nM.
On to `COc1ccc(CNC(=O)N(Cc2ccc(OCc3ccccc3)cc2)NC(=O)[C@H](Cc2c[nH]c3ccccc23)NC(=O)[C@H](CCC(N)=O)NC(=O)OC(C)(C)C)c(OC)c1` [Example 32 (2), Boc-Gln-Trp-AzTyr(CH2 Ph)-NHDmob], for which half-maximal inhibition (IC50) was put at 7700 nM.
`CC(C)(C)OC(=O)N[C@@H](CCC(N)=O)C(=O)N[C@@H](Cc1c[nH]c2ccccc12)C(=O)NN(Cc1ccc(F)cc1)C(=O)NCCOCc1ccccc1` [Example 30 (2), Boc-Gln-Trp-AzPhe(4-F)-NH(CH2)2 OCH2 Ph] yielded an IC50 of 1.1 nM.
With `Cc1ccc(CN(NC(=O)[C@H](Cc2c[nH]c3ccccc23)NC(=O)[C@H](CCC(N)=O)NC(=O)NC(C)(C)C)C(=O)NCCOCc2ccccc2)c(C)c1` [Example 37 (3), t-Bu-NHCO-Gln-Trp-AzPhe(2,4-diMe)-NH(CH2)2 OCH2 Ph], the IC50 was 0.27 nM.
`Cc1cccc(CN(NC(=O)[C@H](Cc2c[nH]c3ccccc23)NC(=O)[C@H](CCC(N)=O)NC(=O)NC(C)(C)C)C(=O)NCCOCc2ccccc2)c1` [Example 34 (3), t-Bu-NHCO-Gln-Trp-AzPhe(3-Me)-NH(CH2)2 OCH2 Ph] came in with an IC50 of 3.9 nM.
Next, `Cc1ccc(CN(NC(=O)[C@H](Cc2c[nH]c3ccccc23)NC(=O)[C@H](CCC(N)=O)NC(=O)NC(C)(C)C)C(=O)NCCOCc2ccccc2)cc1` [Example 35 (3), t-Bu-NHCO-Gln-Trp-AzPhe(4-Me)-NH(CH2)2 OCH2 Ph]: 0.82 nM.
Next, `CC(C)(C)OC(=O)N[C@@H](CCCNC(=O)OCc1ccccc1)C(=O)N[C@@H](Cc1c[nH]c2ccccc12)C(=O)NN(Cc1ccccc1)C(=O)NCCOCc1ccccc1` [Example 13 (1), Boc-Orn(Z)-Trp-AzPhe-NH (CH2)2 OCH2 Ph]: 80 nM; `CC(C)CCC(=O)N[C@@H](CCC(N)=O)C(=O)N[C@@H](Cc1c[nH]c2ccccc12)C(=O)NN(Cc1ccccc1)C(=O)NCCOCc1ccccc1` [Example 3, i-Pent-CO-Gln-Trp-AzPhe-NH(CH2)2 OCH2 Ph]: 0.6 nM; `CC(C)(C)NC(=O)N[C@@H](CCC(N)=O)C(=O)N[C@@H](Cc1c[nH]c2ccccc12)C(=O)NN(Cc1ccccc1C(F)(F)F)C(=O)NCCOCc1ccccc1` [Example 40 (3), t-Bu-NHCO-Gln-Trp-AzPhe(2-CF3)-NH(CH2)2 OCH2 Ph]: 0.31 nM.
Molecule `NC(=O)CC[C@H](NC(=O)NC1CCCC1)C(=O)N[C@@H](Cc1c[nH]c2ccccc12)C(=O)NN(Cc1ccccc1)C(=O)NCCOCc1ccccc1` [Example 8, cyPent-NHCO-Gln-Trp-AzPhe-NH (CH2)2 OCH2 Ph] came in with a half-inhibitory concentration (IC50) of 0.7 nM.
